ChEMBL document CHEMBL1201862, “PubChem BioAssay data set” (2004)
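96-well plates; 48 h exposure; 5 concentrations. Endpoints by linear interpolation between flanking doses. Not reached: highest tested concentration assigned. At the GI50, growth is halved.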 The source made the active and inactive calls. Cut-off read from the data, not from the text of the source: active = GI50 up to about 1.1 µM and inactive = higher.

Key:
Experiment in all cases: growth of human tumour cells (NCI), 48 h
U-251 = test system: U-251
IGROV-1 = test system: IGROV-1
OVCAR-5 = test system: OVCAR-5
A549 = test system: A549
HT-29 = test system: HT-29
NCI-H23 = test system: NCI-H23
MDA-N = test system: MDA-N
COLO 205 = test system: COLO 205
K562 = test system: K562
HL-60 = test system: HL-60
OVCAR-3 = test system: OVCAR-3
LOX IMVI = test system: LOX IMVI
CCRF-CEM = test system: CCRF-CEM
SNB-75 = test system: SNB-75
SW-620 = test system: SW-620
OVCAR-8 = test system: OVCAR-8
Hs-578T = test system: Hs-578T
MDA-MB-435 = test system: MDA-MB-435
SK-OV-3 = test system: SK-OV-3
NCI/ADR-RES = test system: NCI/ADR-RES
UACC-62 = test system: UACC-62
SK-MEL-28 = test system: SK-MEL-28
UO-31 = test system: UO-31
DU-145 = test system: DU-145
SNB-19 = test system: SNB-19
CAKI-1 = test system: CAKI-1
OVCAR-4 = test system: OVCAR-4
NCI-H460 = test system: NCI-H460
RXF 393 = test system: RXF 393
NCI-H522 = test system: NCI-H522
HCT-15 = test system: HCT-15
KM12 = test system: KM12
ACHN = test system: ACHN
EKVX = test system: EKVX
UACC-257 = test system: UACC-257
Malme-3M = test system: Malme-3M
SF-268 = test system: SF-268
T47D = test system: T47D
MCF7 = test system: MCF7
HOP-92 = test system: HOP-92
MDA-MB-231 = test system: MDA-MB-231
SR = test system: SR
SK-MEL-2 = test system: SK-MEL-2
TK-10 = test system: TK-10
MOLT-4 = test system: MOLT-4
NCI-H226 = test system: NCI-H226
A498 = test system: A498
SF-295 = test system: SF-295
SK-MEL-5 = test system: SK-MEL-5
HCC 2998 = test system: HCC 2998
HOP-62 = test system: HOP-62
RPMI-8226 = test system: RPMI-8226
PC-3 = test system: PC-3
M14 = test system: M14
HCT-116 = test system: HCT-116
786-0 = test system: 786-0
SF-539 = test system: SF-539
SN12C = test system: SN12C

With `CC(C(=O)NCCNC(=O)CCCC(=O)N(C)O)C(=O)NCCNC(=O)CCCC(=O)N(C)O` the GI50 (U-251) was > 100 µM (inactive), the GI50 (IGROV-1) was > 100 µM (inactive) and the GI50 (OVCAR-5) was > 100 µM (inactive). The GI50 (A549) was > 100 µM (inactive), the GI50 (HT-29) was > 100 µM (inactive) and the GI50 (NCI-H23) was > 100 µM (inactive). The GI50 (MDA-N) was > 100 µM (inactive), the GI50 (COLO 205) was > 100 µM (inactive) and the GI50 (K562) was > 100 µM (inactive). The GI50 (HL-60) was > 100 µM (inactive), the GI50 (OVCAR-3) was > 100 µM (inactive) and the GI50 (LOX IMVI) was > 100 µM (inactive). For the same compound, the GI50 (CCRF-CEM) was > 100 µM (inactive), the GI50 (SNB-75) was > 100 µM (inactive) and the GI50 (SW-620) was > 100 µM (inactive). For the same compound, the GI50 (OVCAR-8) was > 100 µM (inactive), the GI50 (Hs-578T) was > 100 µM (inactive) and the GI50 (MDA-MB-435) was > 100 µM (inactive). The GI50 (SK-OV-3) was > 100 µM (inactive), the GI50 (NCI/ADR-RES) was > 100 µM (inactive) and the GI50 (UACC-62) was > 100 µM (inactive). The GI50 (SK-MEL-28) was 20.1 µM (inactive), the GI50 (UO-31) was > 100 µM (inactive) and the GI50 (DU-145) was > 100 µM (inactive). The GI50 (SNB-19) was > 100 µM (inactive), the GI50 (CAKI-1) was > 100 µM (inactive) and the GI50 (OVCAR-4) was > 100 µM (inactive). For the same compound, the GI50 (NCI-H460) was > 100 µM (inactive), the GI50 (RXF 393) was > 100 µM (inactive) and the GI50 (NCI-H522) was > 100 µM (inactive). The GI50 (HCT-15) was > 100 µM, the GI50 (KM12) was > 100 µM (inactive) and the GI50 (ACHN) was > 100 µM (inactive). For the same compound, the GI50 (EKVX) was > 100 µM (inactive), the GI50 (UACC-257) was > 100 µM (inactive) and the GI50 (Malme-3M) was > 100 µM (inactive). For the same compound, the GI50 (SF-268) was > 100 µM (inactive), the GI50 (T47D) was > 100 µM (inactive) and the GI50 (MCF7) was > 100 µM (inactive). The GI50 (HOP-92) was > 100 µM (inactive), the GI50 (MDA-MB-231) was > 100 µM (inactive) and the GI50 (SR) was > 100 µM (inactive). The GI50 (SK-MEL-2) was > 100 µM (inactive), the GI50 (TK-10) was > 100 µM (inactive) and the GI50 (MOLT-4) was > 100 µM (inactive). The GI50 (NCI-H226) was > 100 µM (inactive), the GI50 (A498) was > 100 µM (inactive) and the GI50 (SF-295) was > 100 µM (inactive). For the same compound, the GI50 (SK-MEL-5) was > 100 µM (inactive), the GI50 (HCC 2998) was > 100 µM (inactive) and the GI50 (HOP-62) was > 100 µM (inactive). The GI50 (RPMI-8226) was > 100 µM (inactive), the GI50 (PC-3) was > 100 µM (inactive) and the GI50 (M14) was > 100 µM (inactive).
In the case of `CCSc1cc2c(cc1O)CC[C@@H]1[C@@H]2CC[C@]2(C)[C@@H](O)CC[C@@H]12`, the GI50 (HCT-116) is reported as 8.57 µM (inactive), the GI50 (U-251) is reported as 12.6 µM (inactive) and the GI50 (IGROV-1) is reported as 11.7 µM (inactive). For the same compound, the GI50 (OVCAR-5) was 23 µM (inactive), the GI50 (A549) was 4.3 µM (inactive) and the GI50 (HT-29) was 10.8 µM (inactive). For the same compound, the GI50 (NCI-H23) was 18.8 µM (inactive), the GI50 (MDA-N) was 2.67 µM (inactive) and the GI50 (COLO 205) was 18.3 µM (inactive). For the same compound, the GI50 (K562) was 4.12 µM (inactive), the GI50 (HL-60) was 4.54 µM (inactive) and the GI50 (LOX IMVI) was 10.8 µM (inactive). For the same compound, the GI50 (CCRF-CEM) was 10.1 µM (inactive), the GI50 (SNB-75) was 15.2 µM (inactive) and the GI50 (SW-620) was 3.47 µM (inactive). The GI50 (OVCAR-8) was 13.3 µM (inactive), the GI50 (Hs-578T) was 5.33 µM (inactive) and the GI50 (MDA-MB-435) was 1.98 µM (inactive). The GI50 (SK-OV-3) was 17.8 µM (inactive), the GI50 (NCI/ADR-RES) was 5.18 µM (inactive) and the GI50 (UACC-62) was 11.2 µM (inactive). For the same compound, the GI50 (SK-MEL-28) was 14.2 µM (inactive), the GI50 (UO-31) was 15.4 µM (inactive) and the GI50 (DU-145) was 24.5 µM (inactive). For the same compound, the GI50 (SNB-19) was 12.1 µM (inactive), the GI50 (CAKI-1) was 12.6 µM (inactive) and the GI50 (OVCAR-4) was 18.3 µM (inactive). The GI50 (NCI-H460) was 6.68 µM (inactive), the GI50 (RXF 393) was 21.5 µM (inactive) and the GI50 (NCI-H522) was 6.61 µM (inactive). The GI50 (HCT-15) was 5.68 µM, the GI50 (KM12) was 8.11 µM (inactive) and the GI50 (ACHN) was 11.3 µM (inactive). For the same compound, the GI50 (UACC-257) was 15.1 µM (inactive), the GI50 (Malme-3M) was 11.2 µM (inactive) and the GI50 (SF-268) was 29 µM (inactive). The GI50 (T47D) was > 10 µM (inactive), the GI50 (MCF7) was 10.3 µM (inactive) and the GI50 (HOP-92) was 8.77 µM (inactive). The GI50 (786-0) was 12.2 µM (inactive), the GI50 (MDA-MB-231) was 4.94 µM (inactive) and the GI50 (SR) was 4.88 µM (inactive). The GI50 (SF-539) was 15.8 µM (inactive), the GI50 (SK-MEL-2) was 16.3 µM (inactive) and the GI50 (TK-10) was 27.1 µM (inactive). For the same compound, the GI50 (MOLT-4) was 4.98 µM (inactive), the GI50 (SN12C) was 17.7 µM (inactive) and the GI50 (NCI-H226) was 15 µM (inactive). For the same compound, the GI50 (A498) was 15.6 µM (inactive), the GI50 (SK-MEL-5) was 10.8 µM (inactive) and the GI50 (HCC 2998) was 13.9 µM (inactive). The GI50 (HOP-62) was 15.7 µM (inactive), the GI50 (RPMI-8226) was 8.17 µM (inactive) and the GI50 (PC-3) was 5.71 µM (inactive).
